The numbers were not newly measured in patent US20170247690A1, “ONCOVIRAL TREATMENT WITH NUCLEASE AND CHEMOTHERAPEUTIC” (priority 2016, published 2017), which cites them from elsewhere.

In data set [1] the test system is proteasome T-L activity. As to conditions: animal model studies.
Data set [2] concerns the target 20S proteasomes (Homo sapiens, UniProt Q99436). As to conditions: purified 20S proteasomes.

As for `C[C@@]12OC(=O)[C@]1([C@@H](O)[C@@H]1C=CCCC1)NC(=O)[C@@H]2CCCl` [salinosporamide A, Salinosporamide A], the “T-L proteasome activity in vivo” value in data set [1] is listed as “marked inhibition of T-L activity”. Further, in data set [2], the “EC50 for trypsin-like (T-L) activity, comparison” value was “lower EC50 for trypsin-like (T-L) activity than does bortezomib”. As for `CC(C)C[C@H](NC(=O)[C@H](Cc1ccccc1)NC(=O)c1cnccn1)B(O)O` [bortezomib], the “T-L proteasome activity in vivo” value in data set [1] is reported as “enhances T-L proteasome activity”.
